Assay results reported in patent publication US20250049930A1, “PROTAC MOLECULES TARGETING FOXP3 AND USES THEREOF” (CEDARS-SINAI MEDICAL CENTER, priority 2022, published 2025).
Residues, ends and D or L forms follow the SMILES beside them. *: point of attachment. X1 = O=C1CCC(N2C(=O)c3cccc(*)c3C2=O)C(=O)N1; PEG4 = NCCOCCOCCOCCOCCC(=O)O

Biological target: T1, FoxP3 (Homo sapiens, UniProt Q9BZS1)
T1 construct: endogenous in cells; host or cells: human PBMC (CD4+ gated)
T1 sequence (Q9BZS1 1-431): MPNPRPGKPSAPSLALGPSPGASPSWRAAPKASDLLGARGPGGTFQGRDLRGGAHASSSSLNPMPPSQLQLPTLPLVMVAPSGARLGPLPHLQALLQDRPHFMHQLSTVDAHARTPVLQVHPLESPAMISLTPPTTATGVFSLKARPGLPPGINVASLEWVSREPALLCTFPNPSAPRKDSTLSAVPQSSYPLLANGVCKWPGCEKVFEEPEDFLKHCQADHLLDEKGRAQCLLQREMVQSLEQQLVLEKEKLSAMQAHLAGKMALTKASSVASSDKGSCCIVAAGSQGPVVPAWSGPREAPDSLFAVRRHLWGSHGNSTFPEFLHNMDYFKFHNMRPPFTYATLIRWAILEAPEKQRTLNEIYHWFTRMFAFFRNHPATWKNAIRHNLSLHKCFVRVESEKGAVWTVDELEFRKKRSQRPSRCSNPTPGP
Test: FoxP3 expression in CD4+ human PBMC, flow cytometry
Format: cell-based
Details: 10 μM, 3 days, PMA 10 ng/ml and Ionomycin 2 μg/ml, difference to P60 not significant
Experimental: FIGS. 7A-7C depict that PF decreases FoxP3 and the immunosuppressive function of human CD4+ cells. Human peripheral blood mononuclear cells (PBMC) were treated in vitro with PF (10 μM) or various control drugs (10 μM) for 3 days (FIG. 7A). PMA 10 ng/ml and Ionomycin 2 μg/ml were added during PF treatment to induce FoxP3 (FIG. 7A). Resulting cells were gated on CD4 and assessed for FoxP3 expression by flow cytometry. To treat Tregs, CD4+ PBMC were isolated and treated with PF or various controls for 72 hours. […] CD8 proliferation was measured using a CFSE dilution assay. To assess CD8+ effector cells, CD4 negative splenocytes were CFSE labeled and CFSE dilution was measured in CD8+ cells by flow cytometry (FIG. 7B). In the same experiment, CD8+ cells were assessed for activation by gating on CD8 and assessing IFNγ or TNFα by flow cytometry (FIG. 7C). […]
Human peripheral blood mononuclear cells (PBMC) were treated with phorbol 12-myristate 13-acetate (PMA) (10 ng/ml) and Ionomycin (2 μg/ml) to increase FoxP3 expression. […] CD8 proliferation was measured using a CFSE dilution assay. Immune activation was assessed by measuring TNFα or IFNγ in CD8+ or CD4+ T cells using flow cytometry.
P60 was designed to bind both mouse and human FoxP3. Therefore, we evaluated PF using human peripheral blood mononuclear cells (PBMC). […] Resulting cells were gated on CD4 and assessed for FoxP3 expression by flow cytometry. […]

## CSCC[C@H](NC(=O)[C@H](C)NC(=O)[C@H](Cc1ccccc1)NC(=O)[C@H](Cc1ccccc1)NC(=O)[C@@H]1CCCN1C(=O)[C@H](Cc1c[nH]c2ccccc12)NC(=O)[C@H](CCSC)NC(=O)[C@H](CCCCN)NC(=O)[C@H](CCCNC(=N)N)NC(=O)[C@H](Cc1ccccc1)NC(=O)[C@H](CO)NC(=O)[C@H](CCC(N)=O)NC(=O)[C@H](Cc1ccccc1)NC(=O)[C@H](CC(=O)O)NC(=O)[C@H](CCCNC(=N)N)NC(=O)CCOCCOCCOCCOCCNc1cccc2c1C(=O)N(C1CCC(=O)NC1=O)C2=O)C(=O)O (stereo partly shown) [PF, Pomalidomide-PEG4-RDFQSFRKMWPFFAM] ({X1-PEG4}-RDFQSFRKMWPFFAM-OH)
  percent of CD4+ cells expressing FoxP3: decreased the percent of CD4+ cells expressing FoxP3 when compared to control
